From US4364958A, “1-Substituted-3-cycloalkyl-sulfonyl-pyrrolidine-2,5-dione derivatives and fungicidal compositions thereof” (Chinoin Gyogyszer es Vegyeszeti Termekek Gyara Rt., priority 1979, dated 1982)
Values after ≈ are worked out from the molar mass of the structure shown.

Assays:
[1] = LD50, intraperitoneal; settings: mouse, in vivo, ip, intraperitoneally
From the text: LD50 of N-pheny-3-cyclohexyl-sulfonyl-pyrrolidine-2,3-dione when applied intraperitoneally

[2] = tested on: Candida valida; assay: minimal inhibitory concentration, proliferating fungi; assay type: cell-based; settings: Pichia membranifaciens
From the text: (§1) As a medium Saboroud medium was employed.

[3] = tested on: Candida lipolytic; assay: as above; assay type: cell-based
From the text: as §1

[4] = tested on: Candida guilliermondii; assay: as above; assay type: cell-based; settings: Meyerozyma guilliermondii
From the text: as §1

[5] = tested on: Candida parapsilosis; assay: as above; assay type: cell-based; settings: Lodderomyces parapsilosis
From the text: as §1

[6] = tested on: Candida benhamii; assay: as above; assay type: cell-based
From the text: as §1

[7] = tested on: Candida pseudotropic; assay: as above; assay type: cell-based
From the text: as §1

[8] = tested on: Candida humicola; assay: as above; assay type: cell-based; settings: Vanrija humicola
From the text: as §1

[9] = tested on: Candida vini; assay: as above; assay type: cell-based; settings: Kregervanrija fluxuum
From the text: as §1

With `O=C1CC(S(=O)(=O)C2CCCCC2)C(=O)N1c1ccccc1` (stereo not drawn) [1-Phenyl-3-cyclohexyl-sulfonyl-pyrrolidine-2,5-dione] the LD50 ([1]; female mice) was 382 mg/kg and the LD50 ([1]; male mice) was 461 mg/kg.
`Cc1ccc(N2C(=O)CC(S(=O)(=O)C3CCCCC3)C2=O)cc1` (stereo not drawn) showed an MIC ([2]; 24 hours) of 5 µg/mL (≈ 14.9 µM), an MIC ([2]; 48 hours) of 10 µg/mL (≈ 29.8 µM) and an MIC ([3]; 24 hours) of 5 µg/mL (≈ 14.9 µM). The MIC ([3]; 48 hours) was 10 µg/mL (≈ 29.8 µM), the MIC ([4]; 24 hours) was 5 µg/mL (≈ 14.9 µM) and the MIC ([4]; 48 hours) was 10 µg/mL (≈ 29.8 µM). It also gave an MIC ([5]; 24 hours) of 10 µg/mL (≈ 29.8 µM), an MIC ([5]; 48 hours) of 50 µg/mL (≈ 149 µM) and an MIC ([6]; 24 hours) of 25 µg/mL (≈ 74.5 µM). It also gave an MIC ([6]; 48 hours) of 75 µg/mL (≈ 224 µM), an MIC ([7]; 24 hours) of 2.5 µg/mL (≈ 7.45 µM) and an MIC ([7]; 48 hours) of 10 µg/mL (≈ 29.8 µM). For the same compound, the MIC ([8]; 24 hours) was 5 µg/mL (≈ 14.9 µM), the MIC ([8]; 48 hours) was 25 µg/mL (≈ 74.5 µM) and the MIC ([9]; 24 hours) was 1 µg/mL (≈ 2.98 µM). The MIC ([9]; 48 hours) was 5 µg/mL (≈ 14.9 µM).
